In PubChem BioAssay (NCI):
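Values below derive from 48-hour exposures of cells grown in 96-well plates, with endpoints linearly interpolated between the two concentrations bracketing the appropriate inhibition level. At the GI50, growth is halved. At the TGI there is no net growth.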

What was measured:
Experiment in all cases: NCI tumour cell line growth inhibition, 48 h
HCT-116 colon = system: HCT-116 colon
SF-539 CNS = system: SF-539 CNS
TK-10 renal = system: TK-10 renal
OVCAR-3 ovarian = system: OVCAR-3 ovarian
SNB-19 CNS = system: SNB-19 CNS
NCI-H460 lung = system: NCI-H460 lung
BT-549 breast = system: BT-549 breast
SF-268 CNS = system: SF-268 CNS
SNB-75 CNS = system: SNB-75 CNS
UACC-62 melanoma = system: UACC-62 melanoma
SW-620 colon = system: SW-620 colon
HOP-62 NSCLC = system: HOP-62 NSCLC
MALME-3M melanoma = system: MALME-3M melanoma
NCI-H23 lung = system: NCI-H23 lung
HS 578T breast = system: HS 578T breast
IGROV1 ovarian = system: IGROV1 ovarian
SK-MEL-5 melanoma = system: SK-MEL-5 melanoma
LOX IMVI melanoma = system: LOX IMVI melanoma
ACHN renal = system: ACHN renal
DU-145 prostate = system: DU-145 prostate
786-0 renal = system: 786-0 renal
HOP-92 NSCLC = system: HOP-92 NSCLC
A549 NSCLC = system: A549 NSCLC
SR leukemia = system: SR leukemia
SF-295 CNS = system: SF-295 CNS
K-562 leukemia = system: K-562 leukemia
U251 CNS = system: U251 CNS
MDA-MB-231 breast = system: MDA-MB-231 breast
HL-60(TB) leukemia = system: HL-60(TB) leukemia
T-47D breast = system: T-47D breast
OVCAR-8 ovarian = system: OVCAR-8 ovarian
CAKI-1 renal = system: CAKI-1 renal
RXF 393 renal = system: RXF 393 renal
EKVX NSCLC = system: EKVX NSCLC
M14 melanoma = system: M14 melanoma
SK-OV-3 ovarian = system: SK-OV-3 ovarian
RPMI-8226 leukemia = system: RPMI-8226 leukemia
SN12C renal = system: SN12C renal
SK-MEL-28 melanoma = system: SK-MEL-28 melanoma
UACC-257 melanoma = system: UACC-257 melanoma
HCC-2998 colon = system: HCC-2998 colon
PC-3 prostate = system: PC-3 prostate
MOLT-4 leukemia = system: MOLT-4 leukemia
HT29 colon = system: HT29 colon
SK-MEL-2 melanoma = system: SK-MEL-2 melanoma
COLO 205 colon = system: COLO 205 colon
KM12 colon = system: KM12 colon
OVCAR-4 ovarian = system: OVCAR-4 ovarian
OVCAR-5 ovarian = system: OVCAR-5 ovarian
HCT-15 colon = system: HCT-15 colon
A498 renal = system: A498 renal
MCF7 breast = system: MCF7 breast
NCI-H226 lung = system: NCI-H226 lung
NCI/ADR-RES ovarian = system: NCI/ADR-RES ovarian
MDA-MB-435 = system: MDA-MB-435
UO-31 renal = system: UO-31 renal
NCI-H522 lung = system: NCI-H522 lung
CCRF-CEM leukemia = system: CCRF-CEM leukemia

Structure (SMILES): CN1CCN(Cc2ccc(NC(=O)c3cncc(C#Cc4cnc(N)c5ccc(F)cc45)c3)cc2C(F)(F)F)CC1
- GI50 (HCT-116 colon): 1 µM
- TGI (HCT-116 colon): 5.04 µM
- GI50 (SF-539 CNS): 2.03 µM
- TGI (SF-539 CNS): 6.13 µM
- GI50 (TK-10 renal): 2.44 µM
- TGI (TK-10 renal): 6.68 µM
- GI50 (OVCAR-3 ovarian): 2.35 µM
- TGI (OVCAR-3 ovarian): 7.21 µM
- GI50 (SNB-19 CNS): 4.39 µM
- TGI (SNB-19 CNS): 8.96 µM
- GI50 (NCI-H460 lung): 1.08 µM
- TGI (NCI-H460 lung): 8.95 µM
- GI50 (BT-549 breast): 4.38 µM
- TGI (BT-549 breast): 8.86 µM
- GI50 (SF-268 CNS): 1.79 µM
- TGI (SF-268 CNS): 8.92 µM
- GI50 (SNB-75 CNS): 1.3 µM
- TGI (SNB-75 CNS): 5.71 µM
- GI50 (UACC-62 melanoma): 4 µM
- TGI (UACC-62 melanoma): 8.48 µM
- GI50 (SW-620 colon): 1.3 µM
- TGI (SW-620 colon): 4.83 µM
- GI50 (HOP-62 NSCLC): 2.89 µM
- TGI (HOP-62 NSCLC): 7.24 µM
- GI50 (MALME-3M melanoma): 1.08 µM
- TGI (MALME-3M melanoma): 3.93 µM
- GI50 (NCI-H23 lung): 2.4 µM
- TGI (NCI-H23 lung): 7.86 µM
- GI50 (HS 578T breast): 1.17 µM
- TGI (HS 578T breast): 12.2 µM
- GI50 (IGROV1 ovarian): 0.677 µM
- TGI (IGROV1 ovarian): 4.08 µM
- GI50 (SK-MEL-5 melanoma): 2.26 µM
- TGI (SK-MEL-5 melanoma): 6.68 µM
- GI50 (LOX IMVI melanoma): 1.01 µM
- TGI (LOX IMVI melanoma): 4.27 µM
- GI50 (ACHN renal): 1.02 µM
- TGI (ACHN renal): 4.36 µM
- GI50 (DU-145 prostate): 1.25 µM
- TGI (DU-145 prostate): 5.01 µM
- GI50 (786-0 renal): 3.95 µM
- TGI (786-0 renal): 9.99 µM
- GI50 (HOP-92 NSCLC): 0.989 µM
- TGI (HOP-92 NSCLC): 5.58 µM
- GI50 (A549 NSCLC): 2.04 µM
- TGI (A549 NSCLC): 6.46 µM
- GI50 (SR leukemia): 1.25 µM
- TGI (SR leukemia): 33.3 µM
- GI50 (SF-295 CNS): 2.9 µM
- TGI (SF-295 CNS): 7.35 µM
- GI50 (K-562 leukemia): 0.0128 µM
- TGI (K-562 leukemia): 0.683 µM
- GI50 (U251 CNS): 2.14 µM
- TGI (U251 CNS): 6.56 µM
- GI50 (MDA-MB-231 breast): 0.936 µM
- TGI (MDA-MB-231 breast): 3.66 µM
- GI50 (HL-60(TB) leukemia): 1.05 µM
- TGI (HL-60(TB) leukemia): 4.42 µM
- GI50 (T-47D breast): 4.53 µM
- TGI (T-47D breast): 11.4 µM
- GI50 (OVCAR-8 ovarian): 2.31 µM
- TGI (OVCAR-8 ovarian): 7.09 µM
- GI50 (CAKI-1 renal): 1.1 µM
- TGI (CAKI-1 renal): 4.57 µM
- GI50 (RXF 393 renal): 0.826 µM
- TGI (RXF 393 renal): 2.73 µM
- GI50 (EKVX NSCLC): 3.84 µM
- TGI (EKVX NSCLC): 7.89 µM
- GI50 (M14 melanoma): 0.974 µM
- TGI (M14 melanoma): 4.4 µM
- GI50 (SK-OV-3 ovarian): 1.03 µM
- TGI (SK-OV-3 ovarian): 3.81 µM
- GI50 (RPMI-8226 leukemia): 1.27 µM
- TGI (RPMI-8226 leukemia): 26.2 µM
- GI50 (SN12C renal): 1.2 µM
- TGI (SN12C renal): 4.89 µM
- GI50 (SK-MEL-28 melanoma): 2.52 µM
- TGI (SK-MEL-28 melanoma): 7.11 µM
- GI50 (UACC-257 melanoma): 4.08 µM
- TGI (UACC-257 melanoma): 8.63 µM
- GI50 (HCC-2998 colon): 1.7 µM
- TGI (HCC-2998 colon): 5.98 µM
- GI50 (PC-3 prostate): 1.39 µM
- TGI (PC-3 prostate): 6.68 µM
- GI50 (MOLT-4 leukemia): 0.974 µM
- TGI (MOLT-4 leukemia): 6.19 µM
- GI50 (HT29 colon): 0.956 µM
- TGI (HT29 colon): 4.14 µM
- GI50 (SK-MEL-2 melanoma): 0.808 µM
- TGI (SK-MEL-2 melanoma): 2.39 µM
- GI50 (COLO 205 colon): 1.23 µM
- TGI (COLO 205 colon): 4.77 µM
- GI50 (KM12 colon): 0.0282 µM
- TGI (KM12 colon): 4.63 µM
- GI50 (OVCAR-4 ovarian): 0.667 µM
- TGI (OVCAR-4 ovarian): 4.23 µM
- GI50 (OVCAR-5 ovarian): 3.52 µM
- TGI (OVCAR-5 ovarian): 7.51 µM
- GI50 (HCT-15 colon): 1.03 µM
- TGI (HCT-15 colon): 4.62 µM
- GI50 (A498 renal): 0.902 µM
- TGI (A498 renal): 3.92 µM
- GI50 (MCF7 breast): 1.27 µM
- TGI (MCF7 breast): 5.43 µM
- GI50 (NCI-H226 lung): 1.05 µM
- TGI (NCI-H226 lung): 6.16 µM
- GI50 (NCI/ADR-RES ovarian): 3.22 µM
- TGI (NCI/ADR-RES ovarian): 10.4 µM
- GI50 (MDA-MB-435): 1.24 µM
- TGI (MDA-MB-435): 4.99 µM
- GI50 (UO-31 renal): 1.15 µM
- TGI (UO-31 renal): 4.51 µM
- GI50 (NCI-H522 lung): 1.86 µM
- TGI (NCI-H522 lung): 6.53 µM
- GI50 (CCRF-CEM leukemia): 0.865 µM
- TGI (CCRF-CEM leukemia): 16.4 µM
